Test results as given in ChEMBL document CHEMBL4229327, “Chemical Approaches to Modulating Complement-Mediated Diseases” (J Med Chem, 2018).
pIC50, pKd, pKi: −log10 of the molar value. Blank lines part the entries; values can stand above or below the compound they belong to. Bridge positions count the residues as written; N and C are the ends. Peptide text beside a SMILES is read from it.

Legend:
[1] = Inhibition of human plasma C1q-mediated rabbit RBC lysis after 60 mins
[2] = Inhibition of chimpanzee serum C1q-mediated rabbit RBC lysis after 60 mins; design: species or system Pan troglodytes
[3] = Inhibition of rhesus monkey serum C1q-mediated rabbit RBC lysis after 60 mins; design: species or system Macaca mulatta
[4] = Inhibition of rat serum C1q-mediated rabbit RBC lysis after 60 mins
[5] = Inhibition of mouse serum C1q-mediated rabbit RBC lysis after 60 mins
[6] = Binding affinity to C1q (unknown origin) by SPR method; design: species or system Homo sapiens
[7] = target: T1, Mannan-binding lectin serine protease 1 (Homo sapiens, UniProt P48740); test: Inhibition of recombinant […] fragment of MASP-1 (unknown origin)
T1 sequence (P48740 whole entry): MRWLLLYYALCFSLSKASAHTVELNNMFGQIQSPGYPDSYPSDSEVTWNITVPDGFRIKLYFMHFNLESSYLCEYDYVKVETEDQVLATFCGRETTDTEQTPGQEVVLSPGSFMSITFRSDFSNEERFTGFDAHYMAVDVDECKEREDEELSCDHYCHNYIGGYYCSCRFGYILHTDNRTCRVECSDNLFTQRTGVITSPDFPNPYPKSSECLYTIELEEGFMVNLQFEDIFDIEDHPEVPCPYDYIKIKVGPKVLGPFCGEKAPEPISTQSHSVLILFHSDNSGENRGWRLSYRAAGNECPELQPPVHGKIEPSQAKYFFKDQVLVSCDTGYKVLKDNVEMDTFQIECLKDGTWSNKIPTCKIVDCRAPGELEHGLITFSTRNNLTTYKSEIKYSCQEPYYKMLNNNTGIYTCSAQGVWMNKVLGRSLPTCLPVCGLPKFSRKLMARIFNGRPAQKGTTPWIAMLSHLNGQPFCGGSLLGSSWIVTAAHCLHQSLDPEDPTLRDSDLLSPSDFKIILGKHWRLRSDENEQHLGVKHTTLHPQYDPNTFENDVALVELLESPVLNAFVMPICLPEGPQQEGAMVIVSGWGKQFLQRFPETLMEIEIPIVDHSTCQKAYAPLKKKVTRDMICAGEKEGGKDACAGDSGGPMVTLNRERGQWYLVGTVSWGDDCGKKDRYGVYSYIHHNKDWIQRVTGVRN

[8] = target: T1, Mannan-binding lectin serine protease 1; test: Inhibition of MASP1 (unknown origin)-induced lectin pathway by ELISA
[9] = Inhibition of bovine trypsin esterolytic activity using Na-benzoyl-L-Arg-nitroanalide as substrate; design: species or system Bos taurus
[10] = Inhibition of rat serum alternative complement system-mediated lysis of guinea pig erythrocytes
[11] = Selectivity ratio of IC50 for rat serum alternative complement system-mediated lysis of guinea pig erythrocytes to IC50 for human serum C1s-mediated lysis of rabbit Ab-sensitized sheep erythrocytes after 60 mins
[12] = target: T2, Complement C1s subcomponent (Homo sapiens, UniProt P09871); test: Inhibition of C1s (unknown origin) using Cbz-Gly-Arg-S-Bzl as substrate preincubated with substrate for 15 mins followed by enzyme addition and measured after 5 mins
T2 sequence (P09871 whole entry): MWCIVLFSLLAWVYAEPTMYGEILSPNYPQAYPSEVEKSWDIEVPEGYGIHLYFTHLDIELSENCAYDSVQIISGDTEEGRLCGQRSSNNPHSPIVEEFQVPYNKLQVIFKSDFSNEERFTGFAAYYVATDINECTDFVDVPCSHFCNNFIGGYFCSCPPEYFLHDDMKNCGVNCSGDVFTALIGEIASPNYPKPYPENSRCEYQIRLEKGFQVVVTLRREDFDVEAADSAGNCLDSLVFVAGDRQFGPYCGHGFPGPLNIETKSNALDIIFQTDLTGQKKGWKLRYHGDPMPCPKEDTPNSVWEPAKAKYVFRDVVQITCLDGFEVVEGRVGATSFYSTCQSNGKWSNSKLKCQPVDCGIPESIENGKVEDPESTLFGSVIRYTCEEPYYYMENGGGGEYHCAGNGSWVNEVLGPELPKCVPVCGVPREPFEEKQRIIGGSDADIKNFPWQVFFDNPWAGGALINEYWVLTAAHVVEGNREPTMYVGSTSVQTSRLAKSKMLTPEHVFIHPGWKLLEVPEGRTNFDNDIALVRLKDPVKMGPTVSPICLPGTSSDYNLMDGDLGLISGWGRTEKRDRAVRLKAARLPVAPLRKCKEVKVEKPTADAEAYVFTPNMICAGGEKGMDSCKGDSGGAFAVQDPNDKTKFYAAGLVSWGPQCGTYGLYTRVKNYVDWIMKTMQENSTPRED

[13] = target: T3, Complement C1r subcomponent (Homo sapiens, UniProt P00736); test: Inhibition of human serum C1r using AAME as substrate after 30 mins
T3 sequence (P00736 whole entry): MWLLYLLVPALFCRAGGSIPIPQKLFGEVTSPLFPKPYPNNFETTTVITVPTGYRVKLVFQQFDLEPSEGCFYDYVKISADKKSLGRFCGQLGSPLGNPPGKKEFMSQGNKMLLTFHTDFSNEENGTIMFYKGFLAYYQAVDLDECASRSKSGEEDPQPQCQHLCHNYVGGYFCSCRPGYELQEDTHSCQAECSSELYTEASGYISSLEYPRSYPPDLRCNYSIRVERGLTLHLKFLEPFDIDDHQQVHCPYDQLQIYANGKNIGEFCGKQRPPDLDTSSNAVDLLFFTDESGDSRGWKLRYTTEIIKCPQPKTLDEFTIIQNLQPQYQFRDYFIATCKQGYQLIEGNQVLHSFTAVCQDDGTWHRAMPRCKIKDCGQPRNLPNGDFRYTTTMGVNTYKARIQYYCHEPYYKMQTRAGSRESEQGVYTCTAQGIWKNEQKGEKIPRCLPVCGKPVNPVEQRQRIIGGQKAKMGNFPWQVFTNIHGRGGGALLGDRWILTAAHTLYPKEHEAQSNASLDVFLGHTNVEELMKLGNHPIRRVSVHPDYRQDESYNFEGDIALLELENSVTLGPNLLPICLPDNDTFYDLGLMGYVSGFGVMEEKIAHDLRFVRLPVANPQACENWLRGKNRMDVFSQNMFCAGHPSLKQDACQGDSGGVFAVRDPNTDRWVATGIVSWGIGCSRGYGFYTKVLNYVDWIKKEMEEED

[14] = target: T2, Complement C1s subcomponent; test: Inhibition of human serum C1s using AGLME as substrate after 30 mins
[15] = target: T3, Complement C1r subcomponent; test: Inhibition of human plasma C1r using Cbz-Gly-Arg-S-Bzl as substrate preincubated for 10 mins followed by substrate addition and measured after 30 mins by DTNB reagent-based two-beam microtiter plate photometer
[16] = target: T2, Complement C1s subcomponent; test: Inhibition of human plasma C1s using Cbz-Gly-Arg-S-Bzl as substrate preincubated for 10 mins followed by substrate addition and measured after 30 mins by DTNB reagent-based two-beam microtiter plate photometer
[17] = Inhibition of guinea pig C1q-mediated sheep RBC lysis; design: species or system Cavia porcellus
[18] = target: T1, Mannan-binding lectin serine protease 1; test: Inhibition of MASP-1 (unknown origin) using Z-L-LysSBzl hydrochloride as substrate preincubated for 1 hr followed by substrate addition
[19] = target: T4, Mannan-binding lectin serine protease 2 (Homo sapiens, UniProt O00187); test: Inhibition of MASP-2 (unknown origin) using Z-L-LysSBzl hydrochloride as substrate preincubated for 1 hr followed by substrate addition
[20] = target: T4, Mannan-binding lectin serine protease 2; test: Inhibition of MASP-2-mediated C4 deposition in human serum after 1 hr by ELISA
[21] = target: T1, Mannan-binding lectin serine protease 1; test: Inhibition of MASP-1-mediated C3 deposition in human serum after 30 mins by ELISA

T4 sequence (O00187 16-444 limits assumed): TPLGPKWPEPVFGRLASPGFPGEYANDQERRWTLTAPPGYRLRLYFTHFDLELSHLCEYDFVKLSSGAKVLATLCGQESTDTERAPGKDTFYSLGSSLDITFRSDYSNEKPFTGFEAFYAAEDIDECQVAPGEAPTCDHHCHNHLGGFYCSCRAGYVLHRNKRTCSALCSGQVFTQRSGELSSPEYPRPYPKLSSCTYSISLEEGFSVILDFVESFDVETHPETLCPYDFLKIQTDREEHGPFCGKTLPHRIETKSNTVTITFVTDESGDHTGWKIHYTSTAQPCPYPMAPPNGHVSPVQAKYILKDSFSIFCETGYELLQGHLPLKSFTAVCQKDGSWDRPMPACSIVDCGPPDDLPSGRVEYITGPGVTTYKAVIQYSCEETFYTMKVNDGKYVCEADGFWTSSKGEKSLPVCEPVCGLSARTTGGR
T4 sequence (O00187 445-686 limits assumed): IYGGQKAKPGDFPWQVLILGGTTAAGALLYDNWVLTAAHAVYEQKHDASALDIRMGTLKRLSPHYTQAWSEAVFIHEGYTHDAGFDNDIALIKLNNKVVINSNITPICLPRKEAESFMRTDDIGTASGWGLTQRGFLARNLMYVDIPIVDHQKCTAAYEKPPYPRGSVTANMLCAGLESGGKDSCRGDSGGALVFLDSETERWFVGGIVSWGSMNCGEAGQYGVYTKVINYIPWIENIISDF

Structure (SMILES): CC[C@H](C)[C@H](N)C(=O)N[C@@H](C)C(=O)N[C@@H](CC(C)C)C(=O)N[C@H](C(=O)N[C@@H](CC(C)C)C(=O)N[C@@H](CCC(=O)O)C(=O)N1CCC[C@H]1C(=O)N[C@H](C(=O)N[C@@H](CS)C(=O)N[C@@H](CS)C(=O)N[C@@H](CCC(N)=O)C(=O)N[C@@H](CCC(=O)O)C(=O)N[C@@H](CCCNC(=N)N)C(=O)N[C@@H](C)C(=O)N[C@@H](C)C(=O)O)[C@@H](C)CC)[C@@H](C)CC
- pKd [6]: 7.48

Structure (SMILES): N=C(N)c1cc2ccc(OC(=O)c3cccs3)cc2s1
- pIC50 [9]: 6.49
- pIC50 [10]: 6.48
- Ratio IC50 [11]: 7

Structure (SMILES): CSc1sc(C(=N)N)cc1-c1nc(-c2cccc(NS(=O)(=O)c3ccc(F)cc3F)c2)cs1
- pKi [12]: 7.52

Structure (SMILES): N=C(N)c1ccc2cc(OC(=O)c3ccc(N=C(N)N)cc3)ccc2c1 [NAFAMOSTAT]
- pIC50 [13]: 6.10
- pIC50 [14]: 7.54

Structure (SMILES): CC[C@H](C)[C@H](NC(=O)CN)C(=O)N[C@@H](CS)C(=O)N[C@@H](CO)C(=O)N[C@@H](CCCNC(=N)N)C(=O)N[C@@H](CO)C(=O)N[C@@H](CC(C)C)C(=O)N1CCC[C@H]1C(=O)N1CCC[C@H]1C(=O)N[C@H](C(=O)N[C@@H](CS)C(=O)N[C@H](C(=O)N1CCC[C@H]1C(=O)N[C@@H](CC(=O)O)C(=O)O)[C@@H](C)CC)[C@@H](C)CC (H-GICSRSLPPICIPD-OH)
- pKi [18]: 7.19
- pKi [19]: 5.99
- pIC50 [20]: 6.64
- pIC50 [21]: 7.40

More lines, now with the values ahead:

- pIC50 [1]: 5.70
- pIC50 [2]: 5.22 to 5.70
- pIC50 [3]: 5.22 to 5.70
- pIC50 [4]: 5.22 to 5.70
- pIC50 [5]: 5.22 to 5.70
Structure (SMILES): CC(C)C[C@@H]1NC(=O)[C@H](CC(=O)O)NC(=O)[C@H](Cc2c[nH]cn2)NC(=O)[C@H](CCCNC(=N)N)NC(=O)[C@@H]2CCCN2C(=O)CNC(=O)[C@H](Cc2ccccc2)NC(=O)[C@@H]2CCCN2C(=O)CNC(=O)[C@H](CCC(=O)O)NC(=O)[C@@H](N)CSSC[C@@H](C(=O)N[C@@H](Cc2c[nH]c3ccccc23)C(=O)O)NC(=O)[C@H](Cc2ccccc2)NC(=O)[C@H]([C@@H](C)O)NC1=O (H-CEGPFGPRHDLTFCW-OH; disulfide 1-14)

- pKi [7]: 8.15
- pIC50 [8]: 7.38
Structure (SMILES): CC(C)C[C@H](NC(=O)[C@H](CCCCN)NC(=O)[C@H](CCCNC(=N)N)NC(=O)[C@@H](NC(=O)[C@H](CS)NC(=O)[C@H](Cc1ccccc1)NC(=O)[C@H](C)NC(=O)[C@H](CO)NC(=O)[C@H](CCCCN)NC(=O)CNC(=O)[C@H](CC(=O)O)NC(=O)[C@H](CO)NC(=O)CNC(=O)[C@H](CS)NC(=O)[C@H](CCCNC(=N)N)NC(=O)[C@H](CS)NC(=O)[C@@H](NC(=O)[C@H](CC(N)=O)NC(=O)[C@H](CS)NC(=O)[C@H](CCCCN)NC(=O)[C@H](CC(=O)O)NC(=O)[C@H](CCCCN)NC(=O)[C@H](Cc1ccccc1)NC(=O)[C@@H](NC(=O)[C@@H](NC(=O)CNC(=O)[C@@H]1CCCN1C(=O)[C@H](CCC(=O)O)NC(=O)[C@H](CS)NC(=O)[C@@H](NC(=O)[C@@H](N)C(C)C)[C@@H](C)O)[C@@H](C)O)[C@@H](C)O)[C@@H](C)O)[C@@H](C)O)C(=O)N[C@@H](CS)C(=O)N[C@@H](Cc1ccc(O)cc1)C(=O)N[C@@H](CCC(N)=O)C(=O)O (H-VTCEPGTTFKDKCNTCRCGSDGKSAFCTRKLCYQ-OH)

- pIC50 [15]: 6.22
- pIC50 [16]: 6.05
Structure (SMILES): CC(C)[C@@H](NC(=O)Cc1c(Cl)cccc1Cl)C(=O)N1CC=CC1C(=O)NCc1ccc(C(=N)N)s1 (stereo partly specified)

- pIC50 [17]: 3.78
Structure (SMILES): CC(=O)N[C@@H](C)C(=O)N[C@@H](CCC(=O)O)C(=O)N[C@@H](C)C(=O)N[C@@H](CCCCN)C(=O)N[C@@H](C)C(=O)N[C@@H](CCCCN)C(=O)N[C@@H](C)C(N)=O (Ac-AEAKAKA-NH2)
